Laboratory results: PubChem BioAssay (NCI)
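Five concentrations, 48 hours, 96-well plates. TGI is the concentration that stops growth completely.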

Tests used:
Test in all cases: inhibition of tumour cell growth, NCI panel, 48 h
786-0 renal = system: 786-0 renal
A498 renal = system: A498 renal
A549 NSCLC = system: A549 NSCLC
ACHN renal = system: ACHN renal
BT-549 breast = system: BT-549 breast
CAKI-1 renal = system: CAKI-1 renal
CCRF-CEM leukemia = system: CCRF-CEM leukemia
COLO 205 colon = system: COLO 205 colon
DU-145 prostate = system: DU-145 prostate
EKVX NSCLC = system: EKVX NSCLC
HCC-2998 colon = system: HCC-2998 colon
HCT-116 colon = system: HCT-116 colon
HCT-15 colon = system: HCT-15 colon
HL-60(TB) leukemia = system: HL-60(TB) leukemia
HOP-62 NSCLC = system: HOP-62 NSCLC
HOP-92 NSCLC = system: HOP-92 NSCLC
HS 578T breast = system: HS 578T breast
HT29 colon = system: HT29 colon
IGROV1 ovarian = system: IGROV1 ovarian
K-562 leukemia = system: K-562 leukemia
KM12 colon = system: KM12 colon
LOX IMVI melanoma = system: LOX IMVI melanoma
M14 melanoma = system: M14 melanoma
MALME-3M melanoma = system: MALME-3M melanoma
MCF7 breast = system: MCF7 breast
MDA-MB-231 breast = system: MDA-MB-231 breast
MDA-MB-435 = system: MDA-MB-435
MDA-N = system: MDA-N
MOLT-4 leukemia = system: MOLT-4 leukemia
NCI-H226 lung = system: NCI-H226 lung
NCI-H23 lung = system: NCI-H23 lung
NCI-H460 lung = system: NCI-H460 lung
NCI-H522 lung = system: NCI-H522 lung
NCI/ADR-RES ovarian = system: NCI/ADR-RES ovarian
OVCAR-3 ovarian = system: OVCAR-3 ovarian
OVCAR-4 ovarian = system: OVCAR-4 ovarian
OVCAR-5 ovarian = system: OVCAR-5 ovarian
OVCAR-8 ovarian = system: OVCAR-8 ovarian
PC-3 prostate = system: PC-3 prostate
RPMI-8226 leukemia = system: RPMI-8226 leukemia
RXF 393 renal = system: RXF 393 renal
SF-268 CNS = system: SF-268 CNS
SF-295 CNS = system: SF-295 CNS
SF-539 CNS = system: SF-539 CNS
SK-MEL-2 melanoma = system: SK-MEL-2 melanoma
SK-MEL-28 melanoma = system: SK-MEL-28 melanoma
SK-MEL-5 melanoma = system: SK-MEL-5 melanoma
SK-OV-3 ovarian = system: SK-OV-3 ovarian
SN12C renal = system: SN12C renal
SNB-19 CNS = system: SNB-19 CNS
SNB-75 CNS = system: SNB-75 CNS
SR leukemia = system: SR leukemia
SW-620 colon = system: SW-620 colon
T-47D breast = system: T-47D breast
TK-10 renal = system: TK-10 renal
U251 CNS = system: U251 CNS
UACC-257 melanoma = system: UACC-257 melanoma
UACC-62 melanoma = system: UACC-62 melanoma
UO-31 renal = system: UO-31 renal

Compound: O=C(CC(c1ccccc1)c1c(O)c2ccccc2oc1=O)c1ccccc1 (stereo not drawn)
- TGI (786-0 renal): > 100 µM
- TGI (A498 renal): 98.6 µM
- TGI (A549 NSCLC): > 100 µM
- TGI (ACHN renal): > 100 µM
- TGI (BT-549 breast): > 100 µM
- TGI (CAKI-1 renal): 46.4 µM
- TGI (CCRF-CEM leukemia): > 100 µM
- TGI (COLO 205 colon): > 100 µM
- TGI (DU-145 prostate): > 100 µM
- TGI (EKVX NSCLC): > 100 µM
- TGI (HCC-2998 colon): > 100 µM
- TGI (HCT-116 colon): > 100 µM
- TGI (HCT-15 colon): > 100 µM
- TGI (HL-60(TB) leukemia): > 100 µM
- TGI (HOP-62 NSCLC): > 100 µM
- TGI (HOP-92 NSCLC): > 86.5 µM
- TGI (HS 578T breast): > 100 µM
- TGI (HT29 colon): > 100 µM
- TGI (IGROV1 ovarian): > 100 µM
- TGI (K-562 leukemia): > 100 µM
- TGI (KM12 colon): > 100 µM
- TGI (LOX IMVI melanoma): > 100 µM
- TGI (M14 melanoma): > 100 µM
- TGI (MALME-3M melanoma): > 100 µM
- TGI (MCF7 breast): > 100 µM
- TGI (MDA-MB-231 breast): > 100 µM
- TGI (MDA-MB-435): > 100 µM
- TGI (MDA-N): > 100 µM
- TGI (MOLT-4 leukemia): > 100 µM
- TGI (NCI-H226 lung): > 100 µM
- TGI (NCI-H23 lung): > 100 µM
- TGI (NCI-H460 lung): > 100 µM
- TGI (NCI-H522 lung): > 100 µM
- TGI (NCI/ADR-RES ovarian): > 100 µM
- TGI (OVCAR-3 ovarian): > 81.9 µM
- TGI (OVCAR-4 ovarian): > 100 µM
- TGI (OVCAR-5 ovarian): > 100 µM
- TGI (OVCAR-8 ovarian): > 100 µM
- TGI (PC-3 prostate): > 100 µM
- TGI (RPMI-8226 leukemia): > 100 µM
- TGI (RXF 393 renal): > 100 µM
- TGI (SF-268 CNS): > 100 µM
- TGI (SF-295 CNS): > 100 µM
- TGI (SF-539 CNS): > 100 µM
- TGI (SK-MEL-2 melanoma): > 100 µM
- TGI (SK-MEL-28 melanoma): > 100 µM
- TGI (SK-MEL-5 melanoma): > 100 µM
- TGI (SK-OV-3 ovarian): > 100 µM
- TGI (SN12C renal): > 100 µM
- TGI (SNB-19 CNS): > 100 µM
- TGI (SNB-75 CNS): > 100 µM
- TGI (SR leukemia): > 100 µM
- TGI (SW-620 colon): > 100 µM
- TGI (T-47D breast): > 100 µM
- TGI (TK-10 renal): > 100 µM
- TGI (U251 CNS): > 100 µM
- TGI (UACC-257 melanoma): > 100 µM
- TGI (UACC-62 melanoma): > 100 µM
- TGI (UO-31 renal): > 100 µM

Compound: CCCCc1ccc(Nc2nc3c(ncn3C3CC(O)C(CN=[N+]=[N-])O3)c(=O)[nH]2)cc1 (stereo not drawn)
- TGI (786-0 renal): > 100 µM
- TGI (A498 renal): > 100 µM
- TGI (A549 NSCLC): > 100 µM
- TGI (ACHN renal): > 100 µM
- TGI (BT-549 breast): > 100 µM
- TGI (CAKI-1 renal): > 100 µM
- TGI (CCRF-CEM leukemia): > 100 µM
- TGI (COLO 205 colon): > 100 µM
- TGI (DU-145 prostate): > 100 µM
- TGI (EKVX NSCLC): > 100 µM
- TGI (HCC-2998 colon): > 100 µM
- TGI (HCT-116 colon): > 100 µM
- TGI (HCT-15 colon): > 100 µM
- TGI (HL-60(TB) leukemia): > 100 µM
- TGI (HOP-62 NSCLC): > 100 µM
- TGI (HOP-92 NSCLC): > 100 µM
- TGI (HS 578T breast): > 100 µM
- TGI (HT29 colon): > 100 µM
- TGI (IGROV1 ovarian): > 100 µM
- TGI (K-562 leukemia): > 100 µM
- TGI (KM12 colon): > 100 µM
- TGI (LOX IMVI melanoma): > 100 µM
- TGI (M14 melanoma): > 100 µM
- TGI (MALME-3M melanoma): > 100 µM
- TGI (MCF7 breast): > 100 µM
- TGI (MDA-MB-231 breast): > 100 µM
- TGI (MDA-MB-435): > 100 µM
- TGI (MDA-N): > 100 µM
- TGI (MOLT-4 leukemia): > 100 µM
- TGI (NCI-H226 lung): > 100 µM
- TGI (NCI-H23 lung): > 100 µM
- TGI (NCI-H460 lung): > 100 µM
- TGI (NCI-H522 lung): > 100 µM
- TGI (NCI/ADR-RES ovarian): > 100 µM
- TGI (OVCAR-3 ovarian): > 100 µM
- TGI (OVCAR-4 ovarian): > 100 µM
- TGI (OVCAR-5 ovarian): > 100 µM
- TGI (OVCAR-8 ovarian): > 100 µM
- TGI (PC-3 prostate): > 100 µM
- TGI (RPMI-8226 leukemia): > 100 µM
- TGI (RXF 393 renal): > 100 µM
- TGI (SF-268 CNS): > 100 µM
- TGI (SF-295 CNS): > 100 µM
- TGI (SK-MEL-2 melanoma): > 100 µM
- TGI (SK-MEL-28 melanoma): > 100 µM
- TGI (SK-MEL-5 melanoma): > 100 µM
- TGI (SK-OV-3 ovarian): > 100 µM
- TGI (SN12C renal): > 100 µM
- TGI (SNB-19 CNS): > 100 µM
- TGI (SNB-75 CNS): > 100 µM
- TGI (SR leukemia): > 100 µM
- TGI (SW-620 colon): > 100 µM
- TGI (T-47D breast): > 100 µM
- TGI (U251 CNS): > 100 µM
- TGI (UACC-257 melanoma): > 100 µM
- TGI (UACC-62 melanoma): > 100 µM
- TGI (UO-31 renal): > 100 µM

Compound: FC(F)(F)c1nc2nc(Cl)c(Cl)nc2n1CCCN1CCOCC1
- TGI (786-0 renal): > 100 µM
- TGI (A498 renal): > 100 µM
- TGI (A549 NSCLC): > 100 µM
- TGI (ACHN renal): > 100 µM
- TGI (BT-549 breast): > 100 µM
- TGI (CAKI-1 renal): 14.7 µM
- TGI (CCRF-CEM leukemia): > 100 µM
- TGI (COLO 205 colon): > 100 µM
- TGI (DU-145 prostate): 63.2 µM
- TGI (EKVX NSCLC): 50.5 µM
- TGI (HCT-116 colon): > 100 µM
- TGI (HCT-15 colon): > 100 µM
- TGI (HL-60(TB) leukemia): 40.3 µM
- TGI (HOP-62 NSCLC): > 100 µM
- TGI (HOP-92 NSCLC): > 100 µM
- TGI (HS 578T breast): > 100 µM
- TGI (HT29 colon): > 100 µM
- TGI (IGROV1 ovarian): > 100 µM
- TGI (K-562 leukemia): 39.6 µM
- TGI (KM12 colon): > 100 µM
- TGI (LOX IMVI melanoma): > 100 µM
- TGI (M14 melanoma): > 100 µM
- TGI (MALME-3M melanoma): > 100 µM
- TGI (MCF7 breast): > 100 µM
- TGI (MDA-MB-231 breast): > 100 µM
- TGI (MDA-MB-435): > 100 µM
- TGI (MDA-N): > 100 µM
- TGI (MOLT-4 leukemia): 48.6 µM
- TGI (NCI-H226 lung): > 100 µM
- TGI (NCI-H23 lung): > 100 µM
- TGI (NCI-H460 lung): > 100 µM
- TGI (NCI-H522 lung): > 100 µM
- TGI (NCI/ADR-RES ovarian): > 100 µM
- TGI (OVCAR-3 ovarian): > 100 µM
- TGI (OVCAR-4 ovarian): > 100 µM
- TGI (OVCAR-5 ovarian): > 100 µM
- TGI (OVCAR-8 ovarian): > 100 µM
- TGI (PC-3 prostate): > 100 µM
- TGI (RPMI-8226 leukemia): > 100 µM
- TGI (RXF 393 renal): 68.1 µM
- TGI (SF-268 CNS): > 100 µM
- TGI (SF-295 CNS): > 100 µM
- TGI (SF-539 CNS): > 100 µM
- TGI (SK-MEL-2 melanoma): > 100 µM
- TGI (SK-MEL-28 melanoma): > 100 µM
- TGI (SK-MEL-5 melanoma): > 100 µM
- TGI (SK-OV-3 ovarian): > 100 µM
- TGI (SN12C renal): > 100 µM
- TGI (SNB-19 CNS): > 100 µM
- TGI (SNB-75 CNS): > 100 µM
- TGI (SR leukemia): 33.9 µM
- TGI (SW-620 colon): > 100 µM
- TGI (T-47D breast): > 100 µM
- TGI (TK-10 renal): > 100 µM
- TGI (U251 CNS): > 100 µM
- TGI (UACC-257 melanoma): 64 µM
- TGI (UACC-62 melanoma): > 100 µM
